Assays:
poly(A) (RNA, polymer) A = assay: fluorescence titration, site-independent model; settings: TE buffer (Tris-HCl 10 mM, EDTA 1 mM) pH 8.0; dye 1 µM; unit not given
[1] = system: poly(A)·poly(U) (RNA, polymer) A/U; assay: fluorescence titration; CD (exciton-coupled ICD); settings: fluorescence: TE buffer pH 8.0, dye 1 µM; CD: phosphate buffer 10 mM pH 7.5; no Kb given

With `COc1cc2c(/C=C3/Sc4ccccc4N3C)cc[n+](C)c2cc1OC` the Kb (poly(A) (RNA, polymer) A) was 9.5 × 10^6 and the binding [1] was “yes”.

Source: article PMC11940764 (2025)
